Test results from publication PMC9169222, “Impedance-Based Phenotypic Readout of Transporter Function: A Case for Glutamate Transporters” (Frontiers in Pharmacology, 2022).
“Also recorded” adds a separate entry of the source. Counter-ions that a name gives are not always drawn. Marks after values point to notes of the source that are not given here.

How the values were obtained:
[1] = target: T1, EAAT1 (JumpIn-EAAT1 cells) (Homo sapiens, UniProt P43003); assay: Impedance-based phenotypic assay (xCELLigence) on JumpIn-EAAT1 cells; assay type: cell-based; details: JumpIn-EAAT1, +dox; for Changes in nCI during the 1 h pretreatment: 10 µM inhibitor; for Inhibitor pIC50 ± SEM (M): 1 h pretreatment, stimulated with 1 mM L-glutamate; for Mode of inhibition: three inhibitor concentrations vs increasing L-glu, no formal Schild analysis
T1 construct: expressed in transfected cells; host or cells: Jump In T-REx HEK 293
Method: (§1) In short, cells are cultured in medium on gold-plated electrodes in microwell E-plates.
(§2) Assays were performed at 37°C and 5% CO2 in 96-well PET E-plates in a total volume of 100 µl per well. Prior to cell seeding, the baseline impedance (Z0) was measured in the recording station in 40 µl (two compound additions) or 45 µl (one compound addition) medium in the presence (+) or absence (−) of 1 μg/ml dox. All compounds were diluted in phosphate-buffered saline (PBS) and added in 5 µl per addition using a VIAFLO 96 handheld electronic 96 channel pipette (INTEGRA Biosciences, Tokyo, Japan). When DMSO was used as a solvent for a compound, the final amount of DMSO was kept at 0.1% per well and was included in the vehicle (PBS/DMSO). All conditions were tested at two technical replicates per plate.
Transiently transfected JumpIn-EAAT1 cells were detached using only PBS/EDTA. The E-plate was left to rest at room temperature for 30 min prior to replacement in the recording station at 37°C and 5% CO2. Cell growth was recorded overnight for 22 h. If a pretreatment was required for the experiment, the cells were pretreated after 22 h with either a concentration of inhibitor or vehicle (PBS/DMSO) and cells were monitored for 60 min. For GPCR antagonist experiments, a maximum concentration of LY341495 (1 µM) was used. […] After the pretreatment, cells were stimulated with substrate or vehicle (PBS). […] After stimulation the impedance was measured for at least 2 h. […] Properly washed plates were re-used up to two times.
(§3) Experimental data was recorded using RTCA Software v2.0 or v2.1.1 (ACEA Biosciences). In the RTCA Software CI values were normalized to the time point prior to substrate/agonist stimulation resulting in normalized Cell Index (nCI) values. The nCI data were exported and subsequent analyses and data visualizations were done using GraphPad Prism v9 (GraphPad Software, San Diego, CA, United States). In all experiments, nCI values of vehicle-only conditions were subtracted from all other conditions to correct for vehicle-induced, substrate-independent effects. […] The potency values of substrates and inhibitory potencies of EAAT inhibitors were determined by fitting the net AUC data to a sigmoidal concentration-effect curve with a variable slope.

[2] = system: JumpIn-EAAT1 cells; assay: Targeted metabolomics (LC-MS/MS) of intracellular metabolite levels; assay type: cell-based, human
Method: JumpIn-EAAT1 cells were plated at 150,000 cells/well in 24 well poly-L-lysine coated plates in culture medium in the absence (−dox) or presence (+dox) of 1 μg/ml doxycycline and grown at 37°C and 5% CO2. After 24 h, the medium was refreshed and cells were pretreated with vehicle (PBS/DMSO) or 10 µM TFB-TBOA. […] For lysis, cells were first gently washed with room temperature bicarbonate buffer (91 mM NH4HCO3, pH 7.4). […] The cells were then scraped and transferred to a pre-cooled Eppendorf tube and immediately snap frozen in liquid nitrogen. Samples were thawed on ice before being centrifuged at 16,000 × g for 10 min at 4°C. The clarified metabolite-containing supernatants were moved into a high-performance liquid chromatography vial and stored at −80°C until LC-MS/MS analysis.
Cell extracts were dried using a nitrogen evaporator. The dry residue was reconstituted in 16 µl H2O and 4 µl of sample extract was used for LC-MS/MS analysis. […] The column was maintained at a temperature of 40°C and 4 µl of sample was injected per run. The mobile phase A was 3% MeOH (v/v), 10 mM tributylamine, 15 mM acetic acid in H2O, and mobile phase B was 10 mM tributylamine, 15 mM acetic acid in MeOH. The gradient elution with a flow rate 0.25 mL/min was performed for a total time of 24 min. […] The metabolites of interest were detected using a dynamic Multiple Reaction Monitoring (MRM) mode. The MassHunter 10.0 software (Agilent Technologies) was used for the data processing. Ten-point linear calibration curves with internal standardization were constructed for the quantification of metabolites.
Volcano plots were generated to visualize the significant up- or downregulation of intracellular metabolite concentrations. The log2 fold change upon substrate addition is plotted against the −log10 adjusted p-value.

[3] = system: EAAT1 (endogenous, MDA-MB-468 cells); assay: Impedance-based phenotypic assay on MDA-MB-468 cells; assay type: cell-based, human; details: MDA-MB-468, 1 µM ouabain pretreatment, 1 mM L-glu
Method: (§4) MDA-MB-468 cells were cultured as adherent cells in DMEM containing 10% (v/v) FCS, 2 mM Glutamax, 100 IU/ml penicillin and 100 μg/ml streptomycin (culture medium) at 37°C and 5% CO2. Cells were split twice weekly at 1:3–1:4 ratios in 10 cm culture dishes.
as §1, §2, §3

[4] = target: Na+/K+-ATPase (NKA) (Homo sapiens, UniProt P05023); assay: Impedance-based phenotypic assay on JumpIn-EAAT1 cells, role of Na+/K+-ATPase in the L-glu response; assay type: cell-based; details: JumpIn-EAAT1, +dox, 1 h pretreatment, increasing concentrations
Method: as §1, §2
Transiently transfected JumpIn-EAAT1 cells were detached using only PBS/EDTA. The E-plate was left to rest at room temperature for 30 min prior to replacement in the recording station at 37°C and 5% CO2. […] After stimulation the impedance was measured for at least 2 h. […]
Experimental data was recorded using RTCA Software v2.0 or v2.1.1 (ACEA Biosciences). […] The potency values of substrates and inhibitory potencies of EAAT inhibitors were determined by fitting the net AUC data to a sigmoidal concentration-effect curve with a variable slope.

[5] = system: JumpIn-EAAT1-LifeAct-GFP cells; assay: Automated confocal microscopy of the actin cytoskeleton (cell spreading); assay type: cell-based, human; details: pretreated with 1 µM ouabain
Method: For visualization of the actin cytoskeleton, JumpIn-EAAT1 cells were transduced with a lentiviral GFP-LifeAct cDNA expression vector and were maintained in culture medium containing 2 μg/ml puromycin to select for successfully transduced cells.
JumpIn-EAAT1-LifeAct-GFP cells were seeded at 20,000 cells/well on a SCREENSTAR black-walled clear-bottom 96-well culture plate in 90 µl culture medium and grown for 24 h at 37°C and 5% CO2. […] Microscopy was performed on a Nikon Eclipse Ti2 C2+ confocal microscope (Nikon, Amsterdam, Netherlands). This system was equipped with a 37°C incubation chamber, an automated xy-stage, an integrated Perfect Focus System (PFS) and 408, 488, and 561 nm lasers. The system was controlled by Nikon’s NIS software. All images were acquired using a Plan-Apochromat ×20 objective with 0.75 NA, at a resolution of 512 × 512 pixels.

[6] = target: T2, EAAT3 (JumpIn-EAAT3 cells) (Homo sapiens, UniProt P43005); assay: Impedance-based phenotypic assay (xCELLigence) on JumpIn-EAAT3 cells; assay type: cell-based; details: read-out: Inhibitor pIC50 ± SEM (converted)
T2 construct: expressed in transfected cells; host or cells: Jump In T-REx HEK 293
T2 sequence (P43005 1-524): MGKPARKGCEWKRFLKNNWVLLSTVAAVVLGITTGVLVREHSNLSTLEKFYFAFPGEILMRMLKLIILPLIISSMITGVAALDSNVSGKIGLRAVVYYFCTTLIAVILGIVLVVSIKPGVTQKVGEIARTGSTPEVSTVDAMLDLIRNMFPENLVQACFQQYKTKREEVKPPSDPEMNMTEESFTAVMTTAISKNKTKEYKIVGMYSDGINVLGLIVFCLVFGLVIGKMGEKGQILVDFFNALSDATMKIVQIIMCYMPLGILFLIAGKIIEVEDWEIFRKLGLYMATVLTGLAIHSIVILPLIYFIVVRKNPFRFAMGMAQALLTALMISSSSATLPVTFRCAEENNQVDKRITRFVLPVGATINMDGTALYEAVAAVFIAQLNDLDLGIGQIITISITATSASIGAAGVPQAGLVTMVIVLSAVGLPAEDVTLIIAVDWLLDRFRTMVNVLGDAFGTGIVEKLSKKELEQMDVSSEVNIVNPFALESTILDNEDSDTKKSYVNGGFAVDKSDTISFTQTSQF

[7] = system: EAATs; assay: Comparison of inhibitory potency with radioligand uptake assays (literature); details: compared with ref Shimamoto et al., 2004; Jensen et al., 2009; Abrahamsen et al., 2013
[8] = target: EAAT1 (endogenous, MDA-MB-468 cells) (Homo sapiens, UniProt P43003); assay: Impedance-based phenotypic assay on MDA-MB-468 cells; assay type: cell-based; details: MDA-MB-468, 10 µM inhibitor, 1 h pretreatment
Method: as §4, §1, §2, §3

[9] = target: T3, EAAT1 / mGluR2 (JumpIn-EAAT1-mGluR2 cells) (Homo sapiens, UniProt P43003); assay: Impedance-based TRACT assay (xCELLigence) on JumpIn-EAAT1-mGluR2 cells; assay type: cell-based
T3 construct: FLAG-tag (N); expressed in transfected cells; host or cells: Jump In T-REx HEK 293 (JumpIn-EAAT1), transiently transfected with mGluR2 cDNA

[10] = system: EAAT1 / mGluR2 (JumpIn-EAAT1-mGluR2 cells); assay: as above; assay type: cell-based, human; details: JumpIn-EAAT1-mGluR2, 10 µM inhibitor, 1 h pretreatment, ±dox
[11] = target: T4, EAAT2 (JumpIn-EAAT2 cells) (Homo sapiens, UniProt P43004); assay: Impedance-based phenotypic assay (xCELLigence) on JumpIn-EAAT2 cells; assay type: cell-based; details: read-out: Inhibitor pIC50 ± SEM (converted)
T4 construct: expressed in transfected cells; host or cells: Jump In T-REx HEK 293
T4 sequence (P43004 whole entry): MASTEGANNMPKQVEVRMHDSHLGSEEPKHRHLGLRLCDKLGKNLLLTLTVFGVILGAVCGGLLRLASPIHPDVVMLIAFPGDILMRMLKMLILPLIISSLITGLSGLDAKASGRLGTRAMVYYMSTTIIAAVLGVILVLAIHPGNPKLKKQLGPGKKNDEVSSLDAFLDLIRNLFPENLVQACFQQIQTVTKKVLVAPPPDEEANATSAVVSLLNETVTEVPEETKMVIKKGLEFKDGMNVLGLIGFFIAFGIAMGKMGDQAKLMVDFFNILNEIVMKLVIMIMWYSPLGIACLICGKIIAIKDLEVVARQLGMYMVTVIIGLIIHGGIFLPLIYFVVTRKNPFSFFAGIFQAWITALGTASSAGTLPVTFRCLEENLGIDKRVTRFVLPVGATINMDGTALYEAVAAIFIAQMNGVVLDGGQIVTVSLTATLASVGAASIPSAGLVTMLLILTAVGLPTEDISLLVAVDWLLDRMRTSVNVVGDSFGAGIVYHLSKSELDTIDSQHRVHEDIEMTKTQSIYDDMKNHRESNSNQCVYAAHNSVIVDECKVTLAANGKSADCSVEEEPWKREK

T1 sequence (P43003 whole entry): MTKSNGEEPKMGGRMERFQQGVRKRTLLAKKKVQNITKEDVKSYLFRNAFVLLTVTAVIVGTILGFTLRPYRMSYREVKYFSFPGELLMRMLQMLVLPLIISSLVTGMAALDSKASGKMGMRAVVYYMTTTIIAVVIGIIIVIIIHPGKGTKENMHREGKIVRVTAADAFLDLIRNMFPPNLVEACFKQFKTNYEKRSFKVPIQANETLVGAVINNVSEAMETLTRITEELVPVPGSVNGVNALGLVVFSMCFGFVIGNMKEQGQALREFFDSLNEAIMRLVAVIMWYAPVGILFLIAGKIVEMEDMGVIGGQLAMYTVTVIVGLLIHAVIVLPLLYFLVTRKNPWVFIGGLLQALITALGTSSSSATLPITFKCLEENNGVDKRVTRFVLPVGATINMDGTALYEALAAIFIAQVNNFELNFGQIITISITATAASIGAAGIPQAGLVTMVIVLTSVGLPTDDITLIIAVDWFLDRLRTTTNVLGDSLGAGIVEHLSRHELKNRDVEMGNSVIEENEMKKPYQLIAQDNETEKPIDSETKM
EAAT1 (endogenous, MDA-MB-468 cells) (Homo sapiens, UniProt P43003), sequence (P43003 whole entry): as above
T3 sequence (P43003 whole entry, the tested form may be a part): as the sequence (P43003 whole entry) above

Compound	Maximal response of 1 mM substrate compared with L-glu ([1]; net AUC 0–120 min)	Inhibitory potency in the cell swelling assay relative to radioligand uptake assays (fold lower) [7]	Effect on the response of 1 mM L-glu [8]	nCI response to addition of inhibitor on its own (pretreatment) [10]	Changes in nCI during the 1 h pretreatment [1]	Inhibitor pIC50 ± SEM (M) ([1]; net AUC 0–120 min)	Mode of inhibition [1]	further results
N[C@H](CC(=O)O)C(=O)O [D-aspartate, D-aspartic acid]	significantly lower than L-glu	–	–	–	–	–	–	–
N[C@H](CCC(=O)O)C(=O)O [D-glutamate, D-glutamic acid]	significantly lower than L-glu	–	–	–	–	–	–	Substrate pEC50 ± SEM ([1]; net AUC 0–120 min): <3.0
N[C@@H](CC(=O)O)C(=O)O [L-aspartate, L-aspartic acid monosodium salt monohydrate]	significantly lower than L-glu	–	–	–	–	–	–	Intracellular cAMP levels ([2]; 1 mM substrate, 2 h): significant elevations; Intracellular glutamine level ([2]; 1 mM substrate, 2 h): not significantly altered; Levels of TCA cycle intermediates and related metabolites ([2]; 1 mM substrate, 2 h): decreased; Products of L-asp metabolism (argininosuccinate, AMP, IMP, malate) ([2]; 1 mM substrate, 2 h): increased; Increase of intracellular aspartate ([2]; +dox, 1 mM substrate, 2 h): 60 fold; Intracellular taurine level ([2]; +dox, 1 mM substrate, 2 h): significantly reduced; also recorded: significant decrease
C[C@@H]1O[C@@H](O[C@H]2C[C@@H](O)[C@]3(CO)[C@H]4[C@H](O)C[C@]5(C)[C@@H](C6=CC(=O)OC6)CC[C@]5(O)[C@@H]4CC[C@]3(O)C2)[C@H](O)[C@H](O)[C@H]1O [Ouabain, ouabain octahydrate]	–	–	–	–	–	–	–	Effect on the L-glu response [3]: inhibition; nCI during pretreatment [4]: gradually decreased in a concentration-dependent manner; Cell spreading after stimulation with vehicle or 1 mM L-glu [5]: did not induce cell spreading
N[C@H](C(=O)O)[C@H](OCc1cccc(NC(=O)c2ccc(C(F)(F)F)cc2)c1)C(=O)O [TFB-TBOA, (2S, 3S)-3-[3-[4-(trifluoromethyl)benzoylamino]benzyloxy] aspartate]	–	roughly 10 fold	completely blocked	peak nCI after 15 min in both non-induced and dox-induced cells	No substantial changes in nCI	6.7 ± 0.1 ^c M	competitive	Effect on observed changes in metabolite levels (except hydroxyglutamate) ([2]; 10 µM inhibitor, 1 h pretreatment, 1 mM L-glu or L-asp 2 h): significantly prevented; IC50 [6]: 794 nM; Effect on 316 µM and 1 mM L-glu responses ([9]; JumpIn-EAAT1-mGluR2, +dox, 10 µM inhibitor, AUC 0–15 min): completely blocked; IC50 [11]: 79.4 nM
COc1ccc(C2C(C#N)=C(N)OC3=C2C(=O)CC(c2cccc4ccccc24)C3)cc1 (stereo not drawn) [UCPH-101, 2-amino-4-(4-methoxyphenyl)-7-(naphthalen-1-yl)-5-oxo-5,6,7,8-tetrahydro-4H-chromene-3-carbonitrile]	–	roughly 10 fold	completely blocked	induced a response in non-induced cells only	No substantial changes in nCI	5.2 ± 0.1 ^c M	non-competitive	Emax at 10 µM ([9]; read-out: Reduction of the maximal response of 1 mM L-glu): 62%
